Results published in patent publication US20230003721A1, “MITOTHERAPEUTICS FOR THE TREATMENT OF BRAIN DISORDERS” (The University of Florida Research Foundation, Inc., priority 2019, published 2023).

Tested on: Drosophila model for AD
Assay: Drosophila model for AD: neuronal mitochondrial morphology
Assay type: in vivo
Conditions: cell bodies of neurons; 100 micromolar, 15 days-of-age
From the text: To assay representative compounds in this example, we employed a Drosophila model for AD (X. Wang et al., Mol. Neurobiol. […] Flies expressing this toxic protein show: […] Drugs that show efficacy therefore: enlarge neuronal mitochondria (increased volume, increased surface area, increased length), reduce sphericity, and reduce the number of mitochondria compared to untreated Alzheimer's flies. The AD model flies were collected immediately after eclosion from the pupal case and transferred to food that was laced with drug at 100 micromolar concentration. The flies were aged to 15 days-of-age: this is when the mitochondrial pathology is very robust. We compared the morphology of mitochondria collected from these flies treated with drug and compared them to the mitochondria of flies that remained untreated.

## O=c1c(-c2ccc(O)cc2)coc2cc(O)cc(O)c12 [GENISTEIN]
  Surface area of mitochondria, p (treated vs untreated): p = 0.083
